Test results taken from patent US12275734B1, “Pleuromutilin onium salt derivative containing a 3H-imidazo[4,5-c]pyridine side chain, and a preparation method and application thereof” (SHAANXI UNIVERSITY OF SCIENCE AND TECHNOLOGY, priority 2024, dated 2025).

Experiments:
[1] = system: Staphylococcus aureus (MRSA, ATCC 33591); assay: Mouse MRSA systemic infection model, survival rate; format: in vivo; conditions: MRSA-infected mice, 5, 10, 20 mg/kg single intraperitoneal injection 1 hour after infection, 7-day survival
Procedure: (§1) Establishment of a mouse model of MRSA systemic infection
(1) Solution preparation and bacterial activation: Reference Example 15.
(§2) (2) Pretreatment: All mice received cyclophosphamide treatment, with the first intraperitoneal injection of 150 mg/kg cyclophosphamide 4 days before infection and the second intraperitoneal injection of 100 mg/kg cyclophosphamide 1 day before infection.
(3) Control group treatment: Mice in the blank control group received intraperitoneal injection of 0.9% saline.
(4) Infection process: Mice were anesthetized with isoflurane and infected by intraperitoneal injection of Staphylococcus aureus (MRSA, ATCC 33591) at a concentration of 10^7 CFU/mL.
(1) Experimental groups: The doses of compound i and valnemulin were 5, 10, and 20 mg/kg, respectively (the solvent was dimethyl sulfoxide: Tween-80: sterile water=1:0.5:9.5);
A model control group (administered with a solvent after infection with bacteria) and a blank control group (administered with a solvent only without infection with bacteria) were set up, with 10 mice in each group, half of which were male and half were female.
(2) Time point: Intraperitoneal injection was performed in the experimental group mice at 1 hour after infection.
(3) Therapeutic dose: The mice in the experimental groups received intraperitoneal injection of 0.5 mL of compound i and valnemulin at different concentrations. […]

[2] = system: MRSA (ATCC 33591); assay: Time-kill curve; format: cell-based, S. aureus; conditions: 1×MIC to 8×MIC, 0-24 hours
Procedure: Based on the MIC test results, the best performing active compounds were selected for time-kill curve studies.
(2) Sampling: At 0, 2, 4, 6, 8, 12, and 24 hours, aspirate 100 μL of the mixture
(3) Serial dilution and coating: Use 10 mM PBS buffer to dilute 10 times continuously, and evenly coat the diluted liquid on the agar plate
(4) Incubation and counting: Incubate in a 37° C. incubator for 24 hours and count the colonies.
(5) Sterilization curve drawing: Draw the curve of colony count change over time at different compound concentrations, and record the results as shown in FIG. 1.

[3] = system: Staphylococcus aureus (MRSA, ATCC 33591); assay: Mouse MRSA systemic infection model, H&E tissue sections; format: in vivo; conditions: MRSA-infected mice
Procedure: as §1, §2
(4) Infection process: Mice were anesthetized with isoflurane and infected by intraperitoneal injection of Staphylococcus aureus (MRSA, ATCC 33591) at a concentration of 10^7 CFU/mL. […]
(2) Processing: • (a) Time point: At the first hour after infection, mice in the experimental group received intraperitoneal injection of 0.5 mL of compounds of different concentrations, while mice in the control group received the same volume of solvent. • (b) Treatment time: […]
Part II: The samples were fixed with 10% formalin buffer, then embedded in paraffin and sectioned. The sections were stained with hematoxylin and eosin (H&E) and then examined under an optical microscope.

[4] = system: MRSA (ATCC 33591); assay: Cell membrane potential, DiBAC4 (3) probe; conditions: 1×MIC to 8×MIC, vs blank control
[5] = system: E. coli (ATCC 25922); assay: Bacterial intracellular pH (cFDA-SE); format: cell-based; conditions: control 6.16±0.10
Procedure: The definition of pHin is based on the ratio of the pH-sensitive wavelength (490 nm) to the pH-insensitive wavelength (440 nm).
First, prepare fluorescently labeled bacterial cells. MRSA and E. coli bacteria were removed from the culture in the logarithmic growth phase, and after high-speed centrifugation and washing with HEPES buffer, the bacteria were labeled with carboxyfluorescein succinimidyl ester (cFDA-SE), and the fluorescent dye was bound to the cells by incubation.
Next, PBS buffer was used to wash and remove the unbound fluorescent dye, and then the cells were suspended in the buffer and stored in a low-temperature environment. The second step was to determine the intracellular pH. The fluorescently labeled cell suspension was added to a test tube containing different concentrations of compound i and transferred to a black opaque 96-well plate for incubation. The fluorescence value was measured at specific excitation and emission wavelengths using a full-wavelength scanning multifunctional reader to calculate the intracellular pH. The last step is the calibration of the intracellular pH. The standard curve was determined using buffer solutions with different pH values to ensure accurate determination of the pH value inside the bacterial cells. […]

[6] = system: E. coli (ATCC 25922); assay: Bacterial cell morphology by FESEM; format: cell-based; conditions: 4 hours
Procedure: Observation of bacterial cell morphology using FESEM:
First, the bacterial suspension was adjusted to OD600=0.5, and then the bacteria were treated with compound i at a final concentration of 1×MIC and 4×MIC at 37° C. for 4 hours, and a control group without compound addition was set up. After treatment, the bacteria were collected by high-speed centrifugation at 6000 rpm for 10 minutes and washed three times with 10 mM PBS buffer to remove residual culture medium and drugs. Subsequently, the bacteria were fixed with 2.5% glutaraldehyde at 4° C. for 12 hours to maintain the integrity of the cell structure, and then washed again with PBS buffer three times to remove excess glutaraldehyde.
Next, the cells were subjected to a series of ethanol dehydration treatments (30%, 50%, 70%, 80%, 90% and 100% ethanol), and the treatment time of each concentration was sufficient to replace the intracellular water. After dehydration, the sample was resuspended in isoamyl acetate for 30 minutes and then centrifuged at 6000 rpm for 10 minutes to remove the supernatant. The sample was then dried and dotted on a stage with conductive glue, gold-plated to enhance the conductivity of the sample, and finally observed using a field emission scanning electron microscope (FESEM) to obtain high-resolution images of bacterial cell morphology and surface morphology. […]

[7] = 5 mg/kg compound i, intraperitoneal

C=C[C@]1(C)C[C@@H](OC(=O)CSc2nc3cc[n+](Cc4ccc(C)cc4)cc3[nH]2)[C@]2(C)[C@H](C)CC[C@]3(CCC(=O)[C@H]32)[C@@H](C)[C@@H]1O [Compound i, 5-(4-methylbenzyl)-2-((2-(((3aR,4R,5R,7S,8S,9R,9aS,12R)-8-hydroxy-4,7,9,12-tetramethyl-3-oxo-7-vinyldecahydro-4,9a-propancyclopenta[8]cyclo-5-yl)oxy)-2-oxoethyl)thio)-3H-imidazo[4,5-C]pyridine-5-ium]
survival rate of mice [1]: significantly higher than the survival rate of mice given warnemulin
bactericidal efficiency (time-kill curve) compared with retapamulin [2]: higher bactericidal efficiency
kidney H&E histology [3, 7]: returned to a normal state
lung H&E histology [3, 7]: no obvious pathological changes
spleen H&E histology ([3]; 5 mg/kg, after 7 days of treatment): immune response was weakened
membrane potential, DiBAC4 (3) fluorescence intensity [4]: significant dose-dependent increase
intracellular pH after treatment ([5]; 1×MIC): 4.79±0.10
intracellular pH after treatment ([5]; 2×MIC): 3.58±0.10
bacterial cell morphology (FESEM) ([6]; 1×MIC): depressions on the bacterial surface were observed
bacterial cell morphology (FESEM) ([6]; 4×MIC): obvious wrinkles and shrinkage on the bacterial surface
